Columns and labels:
[1] = tested on: S. griseolus PH2001 induced with 10001; experiment: Sulfonylurea metabolism by washed cell suspension (Examples 11-12); assay type: in vitro ADME, Streptomyces griseolus
Experimental: (§1) A 100 ml culture of S. griseolus ATCC 11796 in sporulation broth and a 50 ml culture of S. lividans transformed with pCAO400 in YEME broth were prepared and incubated for 24 hours as described. At that time, the S. griseolus culture was split into two 50 ml aliquots into two separate flasks and 25 ml of fresh sporulation broth was added to each and 9 mg of […] was added to one of these cultures to induce cytochrome P450SU1 expression. Fresh YEME broth (25 ml) was added to the S. lividans culture. After an additional 6 hours growth at 30° C., the cells in each culture were harvested as described above, washed twice with MOPS (50 mM, pH 7.2) and recentrifuged. The cell pellets were resuspended in four cell volumes of MOPS (50 mM, pH 7.2) containing 0.2% glucose and about 100 μg/ml of 10004. These cell suspensions were incubated at 30° C. with shaking and aliqouts were taken at 2 and 5.5 hours. The supernatant of each aliquot was analyzed by HPLC and the concentrations of the sulfonylurea compound 10004 and its metabolite 10005 were determined.
(§2) S. lividans transformed respectively with pCAO200SU1-FeS-B#9, pCAO200SU#112and pCAO200 were cultured for 36 hours in 400 ml of YEME broth at 30° C. S. griseolus ATCC 11796 was similarly cultured in 400 ml of sporulation broth. Six hours before harvesting the cells, 150 ml of fresh YEME broth was added to the S. lividans cells, and the S. griseolus cells were split into two 200 ml cultures with 100 ml of fresh sporulation broth added to each. 10001 (36 mg) was added to one of the two S. griseolus cultures to induce cytochrome P450SU1. The cells were prepared as described above in Example 5 and the concentrations of the sulfonylurea compound 10006 and its metabolites 10007, 10008 or 10009 were determined.
(§3) S. lividans transformed with pCAO200SU2-FeS-A#11 and S. lividans transformed with pCAO200 were cultured for 36 hours in 400 ml of YEME broth at 30° C. S. griseolus PH2001 (mutant without SU1) was cultured in 400 ml of sporulation broth at 30° C. Nine hours before harvesting the cells, the S. griseolus PH2001 culture was divided into two 200 ml cultures. Both received 100 ml of fresh sporulation broth and one received 36 mg of 10001 to induce cytochrome P450SU2. The cells were prepared as described above in Example 6 and the concentrations of the sulfonylurea compound 10001 and its metabolites 10002 and 10003 were determined.

[2] = tested on: S. griseolus PH2001 uninduced; experiment: as above; assay type: in vitro ADME, Streptomyces griseolus
Experimental: as §1, §2, §3

S. lividans pCAO200 = experiment: Sulfonylurea metabolism by washed cell suspension (Examples 6-9); assay type: in vitro ADME, Streptomyces lividans
[3] = tested on: S. griseolus ATCC 11796 induced with 10001; experiment: Sulfonylurea metabolism by washed cell suspension (Examples 5-9); assay type: in vitro ADME, Streptomyces griseolus
S. griseolus PH3826 = experiment: Metabolism of 10001 by strains transformed with pPAT108 (Example 14); assay type: in vitro ADME, Streptomyces griseolus; conditions: substrate 10001 120 ug/ml
Experimental: S. griseolus PH2003, S. griseus PH4001, S. ambofaciens PH4002, and S. lividans JI1326 were transformed with the plasmid pPAT108. The transformed S. griseolus strain, PH3826, was cultured for 24 hours in 150 mls of sporulation broth with 5 ug/ml thiostrepton. The transformed S. griseus strain, PH3832, and the transformed S. ambofaciens strain, PH3834, were cultured for 24 hours in 150 mls of trypticase soy broth with 5 ug/ml thiostrepton. The transformed S. lividans strain, PH3822, was similarly cultured in 150 mls of YEME broth with 5 ug/ml thiostrepton. Three hours before harvesting the cells, 50 mls of fresh medium of the same type with 5 ug/ml thiostrepton was added to each culture. The cells from each of the cultures were harvested by centrifugation, washed twice with 50 mMMOPS, pH7.2 and resuspended in five cell volumes of MOPS containing 0.2% glucose and 120 ug/ml of the sulfonylurea 10001. The cell suspensions were incubated at 30° C. with shaking and aliquots were removed at 0.5, 1, 2 and 4 hours. The supernatant of each aliquot was analyzed by HPLC and the concentration of the sulfonylurea compound 10001 and its metabolites 10002 and 10003 were determined.

[4] = tested on: S. lividans pCAO200SU2-FeS-A#11; experiment: Sulfonylurea metabolism by washed cell suspension (Examples 11-12); assay type: in vitro ADME, Streptomyces lividans; conditions: substrate 10001
Experimental: as §3

[5] = tested on: S. lividans transformed with pCAO400; experiment: Metabolism of 10001 in growing culture, HPLC of supernatant (Example 4); assay type: in vitro ADME, Streptomyces lividans; conditions: 0.12 mg/ml 10001 in culture
Experimental: (§4) Herbicides and their metabolites are measured by HPLC as described by Romesser et al., BBRC 140: 650-659 (1986), herein incorporated by reference, except that 0.1% H3 PO4 is used in both solvents. Chromatographic identity and quantitation of the herbicides and their resulting metabolites is determined by comparing them chromatographically with authentic standard compounds. Identity of the resulting metabolites is also confirmed by UV spectroscopy.
(§5) Separate cultures (50 ml) inoculated with S. lividans C37, S. lividans transformed with pCAO400 or S. lividans transformed with pCAO401 in sporulation broth containing 0.12 mg/ml of 10001 were grown with shaking at 30° C. Aliquots (1.5 ml) of each culture were removed at 24, 32, 48 and 56 hours after inoculation and the supernatant of each aliquot was analyzed by HPLC for its concentration of 10001 and its metabolites 10002 or 10003.

[6] = tested on: S. lividans transformed with pCAO401; experiment: as above; assay type: in vitro ADME, Streptomyces lividans; conditions: 0.12 mg/ml 10001 in culture
Experimental: as §4, §5

SMILES | concentration in supernatant (S. griseolus PH3826; 0.5 h) | concentration in supernatant (S. griseolus PH3826; 1.0 h) | concentration in supernatant (S. griseolus PH3826; 2.0 h) | concentration in supernatant (S. griseolus PH3826; 4.0 h) | concentration in supernatant ([4]; 2 h) | concentration in supernatant ([4]; 4 h) | concentration in supernatant ([4]; 6 h) | concentration in supernatant (S. lividans pCAO200; substrate 10001, 2 h) | concentration in supernatant (S. lividans pCAO200; substrate 10001, 4 h) | concentration in supernatant (S. lividans pCAO200; substrate 10001, 6 h) | concentration in supernatant ([5]; 0 h) | concentration in supernatant ([5]; 24 h) | concentration in supernatant ([5]; 32 h) | concentration in supernatant ([5]; 48 h) | concentration in supernatant ([5]; 56 h) | concentration in supernatant ([6]; 0 h) | concentration in supernatant ([6]; 24 h) | concentration in supernatant ([6]; 32 h) | concentration in supernatant ([6]; 48 h) | concentration in supernatant ([6]; 56 h) | further results
COC(=O)c1ccccc1S(=O)(=O)NC(=O)Nc1nc(C)cc(C)n1 [compound 10010, N-[(4,6-dimethylpyrimidin-2-yl)aminocarbonyl]-2-methoxycarbonylbenzenesulfonamide] | – | – | – | – | – | – | – | – | – | – | – | – | – | – | – | – | – | – | – | – | concentration in supernatant ([1]; substrate 10010, 2 h): 64 µM; concentration in supernatant ([1]; substrate 10010, 4 h): 56 µM; concentration in supernatant ([1]; substrate 10010, 6 h): 50 µM; concentration in supernatant ([2]; substrate 10010, 2 h): 89 µM; concentration in supernatant ([2]; substrate 10010, 4 h): 88 µM; concentration in supernatant ([2]; substrate 10010, 6 h): 89 µM; concentration in supernatant (S. lividans pCAO200; substrate 10010, 2 h): 90 µM; concentration in supernatant (S. lividans pCAO200; substrate 10010, 4 h): 89 µM; concentration in supernatant (S. lividans pCAO200; substrate 10010, 6 h): 89 µM; concentration in supernatant ([3]; substrate 10010, 2 h): 40 µM; concentration in supernatant ([3]; substrate 10010, 4 h): 8 µM; concentration in supernatant ([3]; substrate 10010, 6 h): 4 µM
COc1cc(Cl)nc(NC(=O)NS(=O)(=O)c2ccccc2C(=O)O)n1 [compound 10003, N-[(4-chloro-6-methoxy-pyrimidin-2-yol)aminocarbonyl]-2-carboxybenzenesulfonamide] | 22 µM | 58 µM | 97 µM | 107 µM | 1 µM | 2 µM | 3 µM | 1 µM | 1 µM | 2 µM | 0 µM | 16 µM | 22 µM | 28 µM | 29 µM | 0 µM | 26 µM | 36 µM | 46 µM | 48 µM | concentration in supernatant ([1]; substrate 10001, 2 h): 7 µM; concentration in supernatant ([1]; substrate 10001, 4 h): 10 µM; concentration in supernatant ([1]; substrate 10001, 6 h): 13 µM; concentration in supernatant ([2]; substrate 10001, 2 h): 1 µM; concentration in supernatant ([2]; substrate 10001, 4 h): 2 µM; concentration in supernatant ([2]; substrate 10001, 6 h): 3 µM; concentration in supernatant ([3]; substrate 10001, 2 h): 76 µM; concentration in supernatant ([3]; substrate 10001, 4 h): 128 µM; concentration in supernatant ([3]; substrate 10001, 6 h): 142 µM
CCOC(=O)c1ccccc1S(=O)(=O)NC(=O)Nc1nc(O)cc(Cl)n1 [compound 10002, N-[(4-chloro-6-hydroxy-pyrimidin-2-yl)aminocarbonyl]-2-ethoxycarbonylbenzenesulfonamide] | 41 µM | 101 µM | 171 µM | 189 µM | 7 µM | 12 µM | 15 µM | 2 µM | 1 µM | 2 µM | 0 µM | 17 µM | 25 µM | 39 µM | 47 µM | 0 µM | 32 µM | 44 µM | 63 µM | 71 µM | –
CCOC(=O)c1ccccc1S(=O)(=O)NC(=O)Nc1nc(Cl)cc(OC)n1 [compound 10001, N-[(4-chloro-6-methoxy-pyrimidin-2-yl)aminocarbonyl]-2-ethoxycarbonylbenzenesulfonamide] | 222 µM | 137 µM | 19 µM | 0 µM | 279 µM | 273 µM | 251 µM | 301 µM | 287 µM | 313 µM | 300 µM | 269 µM | 240 µM | 184 µM | 137 µM | 284 µM | 230 µM | 203 µM | 123 µM | 105 µM | concentration in supernatant ([1]; substrate 10001, 2 h): 286 µM; concentration in supernatant ([1]; substrate 10001, 4 h): 256 µM; concentration in supernatant ([1]; substrate 10001, 6 h): 234 µM; concentration in supernatant ([2]; substrate 10001, 2 h): 271 µM; concentration in supernatant ([2]; substrate 10001, 4 h): 264 µM; concentration in supernatant ([2]; substrate 10001, 6 h): 244 µM; concentration in supernatant ([3]; substrate 10001, 2 h): 220 µM; concentration in supernatant ([3]; substrate 10001, 4 h): 36 µM; concentration in supernatant ([3]; substrate 10001, 6 h): 3 µM

From US5349127A, “Expression of herbicide metabolizing cytochromes P450” (priority 1992, dated 1994)
